{"source": "paper PMC11434129", "about": "“Mechanistic Insights from the Crystal Structure and Computational Analysis of the Radical SAM Deaminase DesII” (Advanced Science, 2024)", "key": {"DesII [1]": {"molecular_target": "T1, DesII (Streptomyces venezuelae, UniProt Q9ZGH1)", "T1 construct": "C-terminal His6-tag kept; selenomethionine derivative used for phasing; [Fe4S4] cluster; N-terminal 7-9 residues disordered in crystal", "test": "X-ray crystal structure, […] Å", "format": "binding"}, "[2]": {"molecular_target": "T2, DesII (second DesII expression construct) (Streptomyces venezuelae, UniProt Q9ZGH1)", "T2 construct": "pSJ5 vector, TrxA fusion, His8-tag and TEV site; N-terminal tag removed by TEV; [Fe4S4] cluster; loop D323-E337 disordered", "T2 sequence (Q9ZGH1 1-485)": "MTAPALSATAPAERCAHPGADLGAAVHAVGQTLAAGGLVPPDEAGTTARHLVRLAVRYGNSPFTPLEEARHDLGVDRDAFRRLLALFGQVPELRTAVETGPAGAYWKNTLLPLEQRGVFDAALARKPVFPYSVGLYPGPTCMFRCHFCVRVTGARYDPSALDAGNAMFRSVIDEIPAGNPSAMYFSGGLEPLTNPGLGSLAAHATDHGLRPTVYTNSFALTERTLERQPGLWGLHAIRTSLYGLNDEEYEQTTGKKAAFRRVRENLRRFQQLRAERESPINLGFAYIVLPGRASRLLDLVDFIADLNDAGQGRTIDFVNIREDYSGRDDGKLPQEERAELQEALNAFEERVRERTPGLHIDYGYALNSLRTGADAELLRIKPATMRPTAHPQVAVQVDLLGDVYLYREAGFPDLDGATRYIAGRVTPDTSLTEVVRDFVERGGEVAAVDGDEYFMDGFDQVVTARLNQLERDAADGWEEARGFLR", "test": "X-ray crystal structure, […] Å", "format": "binding", "conditions": "coordinates fourth iron of [Fe4S4] cluster in one monomer; pH 6.0 crystals"}, "DesII [3]": {"molecular_target": "T3, DesII (Streptomyces venezuelae, UniProt Q9ZGH1, E408A)", "T3 construct": "C-terminal His6-tag kept; selenomethionine derivative used for phasing; [Fe4S4] cluster; N-terminal 7-9 residues disordered in crystal", "T3 sequence (Q9ZGH1 whole entry E408A, the tested form may be a part)": "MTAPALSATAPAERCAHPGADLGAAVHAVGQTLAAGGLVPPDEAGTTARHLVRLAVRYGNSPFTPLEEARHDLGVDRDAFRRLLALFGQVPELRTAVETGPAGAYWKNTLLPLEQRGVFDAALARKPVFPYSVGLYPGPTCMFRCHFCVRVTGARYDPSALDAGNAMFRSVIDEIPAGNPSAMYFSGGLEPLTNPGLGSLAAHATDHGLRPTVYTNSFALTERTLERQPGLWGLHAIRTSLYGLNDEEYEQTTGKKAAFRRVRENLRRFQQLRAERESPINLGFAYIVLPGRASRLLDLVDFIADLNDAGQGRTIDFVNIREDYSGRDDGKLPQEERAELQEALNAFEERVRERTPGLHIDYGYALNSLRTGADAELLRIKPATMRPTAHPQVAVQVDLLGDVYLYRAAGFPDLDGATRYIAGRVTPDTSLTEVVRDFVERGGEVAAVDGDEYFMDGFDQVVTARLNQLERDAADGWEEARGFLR", "test": "deaminase activity assay", "format": "biochemical", "conditions": "deamination"}, "DesII [4]": {"molecular_target": "T4, DesII (Streptomyces venezuelae, UniProt Q9ZGH1, E408Q)", "T4 construct": "C-terminal His6-tag kept; selenomethionine derivative used for phasing; [Fe4S4] cluster; N-terminal 7-9 residues disordered in crystal", "T4 sequence (Q9ZGH1 whole entry E408Q, the tested form may be a part)": "as the sequence (Q9ZGH1 whole entry E408A, the tested form may be a part) above, with A408Q counted along it", "test": "deaminase activity assay", "format": "biochemical", "conditions": "deamination"}, "DesII [5]": {"molecular_target": "T1, DesII", "test": "deaminase activity assay", "format": "biochemical", "conditions": "deamination"}}}
{"smiles": "C[S+](CC[C@H](N)C(=O)O)C[C@H]1O[C@@H](n2cnc3c(N)ncnc32)[C@H](O)[C@@H]1O", "note": "(stereo partly drawn) [SAM, S-adenosyl-L-methionine]", "values": [{"measurement": "X-ray crystal structure, 2.33 Å", "setting": "DesII [1]; coordinated to [Fe4S4] cluster, chains a and c", "value": "A single molecule of SAM was found coordinated to the [Fe4S4] cluster in chains a"}]}
{"smiles": "CSCC[C@H](N)C(=O)O", "note": "[Met, methionine]", "values": [{"measurement": "X-ray crystal structure, 2.04 Å", "setting": "[2]", "value": "coordinated with a water molecule and the other with methionine"}, {"measurement": "X-ray crystal structure, 2.33 Å", "setting": "DesII [1]; active sites of chains b and d", "value": "with methionine bound in the active sites of chains b and d"}]}
{"smiles": "Cc1cn([C@H]2C[C@H](O)[C@@H](COP(=O)(O)OP(=O)(O)O[C@H]3O[C@H](C)[C@@H](N)[C@H](O)[C@H]3O)O2)c(=O)[nH]c1=O", "note": "[compound 1, TDP-4-amino-4,6-dideoxy-D-glucose]", "values": [{"measurement": "deaminase activity assay", "setting": "DesII [3]", "value": "E408A and E408Q mutants were both constructed and found to retain deaminase activity"}, {"measurement": "deaminase activity assay", "setting": "DesII [4]", "value": "E408A and E408Q mutants were both constructed and found to retain deaminase activity"}, {"measurement": "deaminase activity assay", "setting": "DesII [5]", "value": "found to retain deaminase activity comparable to that of wildtype enzyme"}]}
